Laboratory results published in patent US10035806B2, “Derivatized corroles and metallocorroles and their use as imaging and therapeutic agents” (CALIFORNIA INSTITUTE OF TECHNOLOGY, priority 2015, dated 2018).

Tests used:
Type in all cases: cell-based, human
DU-145 = experiment: MTS assay (cytotoxicity); details: DU-145 (prostate), 72 h exposure in the dark, MTS assay, mean of three experiments
Text: (§1) Reagents were obtained from the indicated suppliers: HBSS without phenol red and trypsin-EDTA (0.25%), Invitrogen/Gibco; PBS, Mediatech; 4′,6-diamidino-2-phenylindole dihydrochloride (DAPI) and DMSO, Sigma-Aldrich; paraformaldehyde, Electron Microscopy Sciences; WGA, Alexa Fluor 488 conjugate, Invitrogen/Molecular Probes; and ProLong Gold Antifade Mountant with DAPI, Life Technologies. Human Cancer Cell Lines. Four cell lines from the NCI60 cell panel (Shoemaker RH (2006) The NCI60 human tumour cell line anticancer drug screen. Nat Rev Cancer 6(10):813-823) representing four distinct tumor types were used in this study: DU-145, prostate; MDA-MB-231, breast; SK-MEL-28, melanoma; and OVCAR-3, ovarian. Cells were grown in RPMI 1640 cell culture medium (Mediatech) containing 2 mM L-glutamine, supplemented with 10% FBS (Omega Scientific), and maintained at 37° C. under 5% CO2 in a humidified incubator.
(§2) At the time of drug treatment, stock solutions of 1-4 were diluted to 10-fold the desired final test concentrations with RPMI medium 1640. Aliquots of […] of these diluted solutions were added to the appropriate microtiter wells containing 90 μL of medium, resulting in the required final drug concentrations (eight concentrations per compound, ranging from 0.3 to 600 μM). The final concentration of DMSO in test culture was <1%. […] Following 72 h of exposure at 37° C., cell viability was determined using the MTS assay (CellTiter 96 Aqueous One Cell Proliferation Assay; Promega) according to the manufacturer's instructions. Absorbances were measured using a microplate reader (Synergy 4; Biotek Instruments) at 490 nm. Experiments were performed in triplicate and each dose-response curve represents the mean of three or more independent experiments. Spectrophotometric data were analyzed by sigmoid dose-response, nonlinear regression analysis; the IC50, Emax values, and associated SE were calculated using GraphPad Prism 6 (GraphPad Software).
(§3) The effects of bis-sulfonate, carboxylate, and aminocaproate ring substituents on gallium corrole cytotoxicities were examined using four human cancer cell lines, representing tumors of different origin selected based on previously described sensitivities.

SK-MEL-28 = experiment: MTS assay (cytotoxicity); details: SK-MEL-28 (melanoma), 72 h exposure in the dark, mean of three experiments
Text: as §1, §2, §3

MDA-MB-231 = experiment: MTS assay (cytotoxicity); details: MDA-MB-231 (breast), 72 h exposure in the dark, mean of three experiments
Text: as §1, §2, §3

HCC-2998 = experiment: NCI60 anticancer drug screen; details: HCC-2998 (Colon cancer), 10 μM, 48 h
Text: (§4) The aminocaproate-substituted corrole Complex 3 was submitted to NCI for cytotoxic screening at a single high dose (10−5M) in a panel of 60 human tumor cell lines (NCI60). Details of the cytotoxicity assessment in the NCI anticancer drug screen have been described previously, in Monks A, et al. (1991) Feasibility of a high-flux anticancer drug screen using a diverse panel of cultured human tumor cell lines. J Natl Cancer Inst 83(11):757-766, this reference being incorporated by reference for these teachings.
(§5) In view of the promising results observed for carboxylated corroles, Complex 3 was selected for expanded cell screening to uncover additional susceptible cancer cell lines. The cytotoxic activity of Complex 3 was tested at a dose of 10^−5 M against 60 human cancer cell lines representing nine distinct tumor types in the anticancer screening program of the National Cancer Institute (NCI). The in vitro parameters for cytotoxicity, growth percent, and lethality were obtained for Complex 3 and reported as a mean graph of the percent growth of treated cells (FIG. 7). Bars in the mean graph depict the deviation of individual tumor cell lines from the overall mean value for all cells tested. Bars that project to the right of the mean represent cell lines that are more sensitive to Complex 3, whereas cell lines less sensitive to the compound display bars that project to the left.
(§6) The numerical values associated with this assay represent growth relative to the no-drug control and the numbers of cells at time 0 (FIG. 7). This allows detection of both growth inhibition (values between 0 and 100) and lethality (values less than 0). For example, a value of 100 signifies no growth inhibition, 40 means 60% growth inhibition, 0 means no net growth over the course of the experiment, −40 means 40% lethality, and −100 indicates all cells are dead. […] Growth inhibitions reflect cytostatic activity of the compound as previously shown for Complex 2. In contrast, cell lethality is only evident in melanoma cells, specifically the LOX IMVI and SK-MEL-28 cell lines.

BT-549 = experiment: NCI60 anticancer drug screen; details: BT-549 (Breast Cancer), 10 μM, 48 h
Text: as §4, §5, §6

IGROV1 = experiment: NCI60 anticancer drug screen; details: IGROV1 (Ovarian Cancer), 10 μM, 48 h
Text: as §4, §5, §6

SR = experiment: NCI60 anticancer drug screen; details: SR (Leukemia), 10 μM, 48 h
Text: as §4, §5, §6

M14 = experiment: NCI60 anticancer drug screen; details: M14 (Melanoma), 10 μM, 48 h
Text: as §4, §5, §6

HS 578T = experiment: NCI60 anticancer drug screen; details: HS 578T (Breast Cancer), 10 μM, 48 h
Text: as §4, §5, §6

OVCAR-3 = experiment: NCI60 anticancer drug screen; details: OVCAR-3 (Ovarian Cancer), 10 μM, 48 h
Text: as §4, §5, §6

MDA-MB-468 = experiment: NCI60 anticancer drug screen; details: MDA-MB-468 (Breast Cancer), 10 μM, 48 h
Text: as §4, §5, §6

A498 = experiment: NCI60 anticancer drug screen; details: A498 (Renal Cancer), 10 μM, 48 h
Text: as §4, §5, §6

MDA-MB-231/ATCC = experiment: NCI60 anticancer drug screen; details: MDA-MB-231/ATCC (Breast Cancer), 10 μM, 48 h
Text: as §4, §5, §6

A549/ATCC = experiment: NCI60 anticancer drug screen; details: A549/ATCC (Non-small-cell lung cancer), 10 μM, 48 h
Text: as §4, §5, §6

SK-MEL-2 = experiment: NCI60 anticancer drug screen; details: SK-MEL-2 (Melanoma), 10 μM, 48 h
Text: as §4, §5, §6

RPMI-8226 = experiment: NCI60 anticancer drug screen; details: RPMI-8226 (Leukemia), 10 μM, 48 h
Text: as §4, §5, §6

[1] = test system: DU-145, SK-MEL-28, MDA-MB-231, OVCAR-3; experiment: MTS assay, all four cell lines taken together; details: Table 1 comparison, 72 h
Text: as §1, with “Cells were grown in RPMI 1640 cell culture medium (Mediatech) containing 2 mM L-glutamine, supplemented with 10% FBS (Omega Scientific), and maintained at 37° C. under 5% CO2 in a humidified incubator.” left out
At the time of drug treatment, stock solutions of 1-4 were diluted to 10-fold the desired final test concentrations with RPMI medium 1640. […] Following 72 h of exposure at 37° C., cell viability was determined using the MTS assay (CellTiter 96 Aqueous One Cell Proliferation Assay; Promega) according to the manufacturer's instructions. Absorbances were measured using a microplate reader (Synergy 4; Biotek Instruments) at 490 nm. […] Spectrophotometric data were analyzed by sigmoid dose-response, nonlinear regression analysis; the IC50, Emax values, and associated SE were calculated using GraphPad Prism 6 (GraphPad Software). […]

## O=C(O)CCCCCNc1c(F)c(F)c(C2=C3C=CC4=[N+]3[Ga-]35[n]6c2ccc6C(c2c(F)c(F)c(F)c(F)c2F)=c2ccc([n]23)=C(c2c(F)c(F)c(F)c(F)c2F)c2ccc4[n]25)c(F)c1F (centres unmarked) [Complex 3]
DU-145
  IC50: 17.6 µM
SK-MEL-28
  IC50: 14.4 µM
MDA-MB-231
  IC50: 13.7 µM
HCC-2998
  Growth inhibition, %: 60.1%
BT-549
  Growth inhibition, %: 73.0%
IGROV1
  Growth inhibition, %: 55.7%
SR
  Growth inhibition, %: 87.5%
M14
  Growth inhibition, %: 84.1%
HS 578T
  Growth inhibition, %: 81.2%
OVCAR-3
  Growth inhibition, %: 75.9%
MDA-MB-468
  Growth inhibition, %: 86.3%
A498
  Growth inhibition, %: 99.0%
MDA-MB-231/ATCC
  Growth inhibition, %: 72.5%
A549/ATCC
  Growth inhibition, %: 82.7%
SK-MEL-2
  Growth inhibition, %: 64.1%
RPMI-8226
  Growth inhibition, %: 70.2%
[1]
  IC50 lower than Complex 2: 10 fold
